{
  "source": "patent US20210267944A1",
  "about": "(BioXcel Therapeutics, Inc., priority 2018, published 2021)",
  "conditions": "for Diastolic blood pressure Max / Diastolic blood pressure Mean ± SD / Diastolic blood pressure Median / Diastolic blood pressure Min / Pulse rate, Max / Pulse rate, Mean ± SD / Pulse rate, Median / Pulse rate, Min / Respiration rate, Max / Respiration rate, Mean ± SD / Respiration rate, Median / Respiration rate, Min / Systolic blood pressure, Max / Systolic blood pressure, Mean ± SD / Systolic blood pressure, Median / Systolic blood pressure, Min: SDAT patients, IV infusion",
  "experimental": "Study drug IV infusion was to be stopped at any time if any of the following occurred: • There was more than 20 mm Hg decrease in systolic or diastolic blood pressure. • There was an isolated drop in Systolic BP<100 mm of Hg. • There was an isolated drop Diastolic BP<60 mm of Hg. • There was a decrease in heart rate of 20 beats per minute or a drop below 50 beats per minute. • Attainment of a RASS of −1 at the end of each 30 minutes infusion period.\nReturn to baseline parameters was defined as BP falling within 15 mm of Hg of baseline reading prior to drug administration or HR falling within 10 beats per minute of baseline reading prior to drug administration.",
  "note": "Counter-ions that a name gives are not always drawn. Like-named read-outs stand apart in the source and are kept apart here.",
  "data": [
    {"smiles": "Cc1cccc([C@H](C)c2cnc[nH]2)c1C", "note": "[dexmedetomidine hydrochloride]", "values": [
      {"measurement": "all the vital signs values", "setting": "SDAT", "value": "within clinically acceptable limits"},
      {"measurement": "Diastolic blood pressure Max", "setting": "00:00 Hr", "value": "90 mm of Hg"},
      {"measurement": "Diastolic blood pressure Mean ± SD", "setting": "00:00 Hr", "value": "80.9 ± 9.87 mm of Hg"},
      {"measurement": "Diastolic blood pressure Median", "setting": "00:00 Hr", "value": "83.5 mm of Hg"},
      {"measurement": "Diastolic blood pressure Min", "setting": "00:00 Hr", "value": "64 mm of Hg"},
      {"measurement": "Pulse rate, Max", "setting": "00:00 Hr", "value": 91, "unit": "beats/min"},
      {"measurement": "Pulse rate, Mean ± SD", "setting": "00:00 Hr", "value": "79.0 ± 9.02", "unit": "beats/min"},
      {"measurement": "Pulse rate, Median", "setting": "00:00 Hr", "value": 78.0, "unit": "beats/min"},
      {"measurement": "Pulse rate, Min", "setting": "00:00 Hr", "value": 64, "unit": "beats/min"},
      {"measurement": "Respiration rate, Max", "setting": "00:00 Hr", "value": 26, "unit": "breaths/min"},
      {"measurement": "Respiration rate, Mean ± SD", "setting": "00:00 Hr", "value": "19.6 ± 2.50", "unit": "breaths/min"},
      {"measurement": "Respiration rate, Median", "setting": "00:00 Hr", "value": 19.5, "unit": "breaths/min"},
      {"measurement": "Respiration rate, Min", "setting": "00:00 Hr", "value": 17, "unit": "breaths/min"},
      {"measurement": "Systolic blood pressure, Max", "setting": "00:00 Hr", "value": "169 mm of Hg"},
      {"measurement": "Systolic blood pressure, Mean ± SD", "setting": "00:00 Hr", "value": "143.2 ± 13.60 mm of Hg"},
      {"measurement": "Systolic blood pressure, Median", "setting": "00:00 Hr", "value": "140.0 mm of Hg"},
      {"measurement": "Systolic blood pressure, Min", "setting": "00:00 Hr", "value": "125 mm of Hg"},
      {"measurement": "Diastolic blood pressure Max", "setting": "00:15 Hr", "value": "92 mm of Hg"},
      {"measurement": "Diastolic blood pressure Mean ± SD", "setting": "00:15 Hr", "value": "82.1 ± 8.46 mm of Hg"},
      {"measurement": "Diastolic blood pressure Median", "setting": "00:15 Hr", "value": "84.0 mm of Hg"},
      {"measurement": "Diastolic blood pressure Min", "setting": "00:15 Hr", "value": "70 mm of Hg"},
      {"measurement": "Pulse rate, Max", "setting": "00:15 Hr", "value": 89, "unit": "beats/min"},
      {"measurement": "Pulse rate, Mean ± SD", "setting": "00:15 Hr", "value": "78.2 ± 9.85", "unit": "beats/min"},
      {"measurement": "Pulse rate, Median", "setting": "00:15 Hr", "value": 80.0, "unit": "beats/min"},
      {"measurement": "Pulse rate, Min", "setting": "00:15 Hr", "value": 57, "unit": "beats/min"},
      {"measurement": "Respiration rate, Max", "setting": "00:15 Hr", "value": 26, "unit": "breaths/min"},
      {"measurement": "Respiration rate, Mean ± SD", "setting": "00:15 Hr", "value": "18.3 ± 3.20", "unit": "breaths/min"},
      {"measurement": "Respiration rate, Median", "setting": "00:15 Hr", "value": 17.0, "unit": "breaths/min"},
      {"measurement": "Respiration rate, Min", "setting": "00:15 Hr", "value": 15, "unit": "breaths/min"},
      {"measurement": "Systolic blood pressure, Max", "setting": "00:15 Hr", "value": "155 mm of Hg"},
      {"measurement": "Systolic blood pressure, Mean ± SD", "setting": "00:15 Hr", "value": "138.0 ± 10.35 mm of Hg"},
      {"measurement": "Systolic blood pressure, Median", "setting": "00:15 Hr", "value": "134.5 mm of Hg"},
      {"measurement": "Systolic blood pressure, Min", "setting": "00:15 Hr", "value": "122 mm of Hg"},
      {"measurement": "Diastolic blood pressure Max", "setting": "00:30 Hr", "value": "89 mm of Hg"},
      {"measurement": "Diastolic blood pressure Mean ± SD", "setting": "00:30 Hr", "value": "80.3 ± 7.99 mm of Hg"},
      {"measurement": "Diastolic blood pressure Median", "setting": "00:30 Hr", "value": "82.5 mm of Hg"},
      {"measurement": "Diastolic blood pressure Min", "setting": "00:30 Hr", "value": "66 mm of Hg"},
      {"measurement": "Pulse rate, Max", "setting": "00:30 Hr", "value": 94, "unit": "beats/min"},
      {"measurement": "Pulse rate, Mean ± SD", "setting": "00:30 Hr", "value": "80.5 ± 10.43", "unit": "beats/min"},
      {"measurement": "Pulse rate, Median", "setting": "00:30 Hr", "value": 76.5, "unit": "beats/min"},
      {"measurement": "Pulse rate, Min", "setting": "00:30 Hr", "value": 64, "unit": "beats/min"},
      {"measurement": "Respiration rate, Max", "setting": "00:30 Hr", "value": 24, "unit": "breaths/min"},
      {"measurement": "Respiration rate, Mean ± SD", "setting": "00:30 Hr", "value": "18.1 ± 2.73", "unit": "breaths/min"},
      {"measurement": "Respiration rate, Median", "setting": "00:30 Hr", "value": 18.0, "unit": "breaths/min"},
      {"measurement": "Respiration rate, Min", "setting": "00:30 Hr", "value": 13, "unit": "breaths/min"},
      {"measurement": "Systolic blood pressure, Max", "setting": "00:30 Hr", "value": "155 mm of Hg"},
      {"measurement": "Systolic blood pressure, Mean ± SD", "setting": "00:30 Hr", "value": "135.9 ± 10.05 mm of Hg"},
      {"measurement": "Systolic blood pressure, Median", "setting": "00:30 Hr", "value": "133.5 mm of Hg"},
      {"measurement": "Systolic blood pressure, Min", "setting": "00:30 Hr", "value": "120 mm of Hg"},
      {"measurement": "Diastolic blood pressure Max", "setting": "00:45 Hr", "value": "86 mm of Hg"},
      {"measurement": "Diastolic blood pressure Mean ± SD", "setting": "00:45 Hr", "value": "76.4 ± 9.42 mm of Hg"},
      {"measurement": "Diastolic blood pressure Median", "setting": "00:45 Hr", "value": "79.0 mm of Hg"},
      {"measurement": "Diastolic blood pressure Min", "setting": "00:45 Hr", "value": "62 mm of Hg"},
      {"measurement": "Pulse rate, Max", "setting": "00:45 Hr", "value": 90, "unit": "beats/min"},
      {"measurement": "Pulse rate, Mean ± SD", "setting": "00:45 Hr", "value": "76.0 ± 9.48", "unit": "beats/min"},
      {"measurement": "Pulse rate, Median", "setting": "00:45 Hr", "value": 77.0, "unit": "beats/min"},
      {"measurement": "Pulse rate, Min", "setting": "00:45 Hr", "value": 58, "unit": "beats/min"},
      {"measurement": "Respiration rate, Max", "setting": "00:45 Hr", "value": 20, "unit": "breaths/min"},
      {"measurement": "Respiration rate, Mean ± SD", "setting": "00:45 Hr", "value": "18.1 ± 1.91", "unit": "breaths/min"},
      {"measurement": "Respiration rate, Median", "setting": "00:45 Hr", "value": 18.0, "unit": "breaths/min"},
      {"measurement": "Respiration rate, Min", "setting": "00:45 Hr", "value": 15, "unit": "breaths/min"},
      {"measurement": "Systolic blood pressure, Max", "setting": "00:45 Hr", "value": "160 mm of Hg"},
      {"measurement": "Systolic blood pressure, Mean ± SD", "setting": "00:45 Hr", "value": "138.3 ± 14.29 mm of Hg"},
      {"measurement": "Systolic blood pressure, Median", "setting": "00:45 Hr", "value": "137.0 mm of Hg"},
      {"measurement": "Systolic blood pressure, Min", "setting": "00:45 Hr", "value": "118 mm of Hg"},
      {"measurement": "Diastolic blood pressure Max", "setting": "01:00 Hr", "value": "90 mm of Hg"},
      {"measurement": "Diastolic blood pressure Mean ± SD", "setting": "01:00 Hr", "value": "74.5 ± 8.97 mm of Hg"},
      {"measurement": "Diastolic blood pressure Median", "setting": "01:00 Hr", "value": "73.5 mm of Hg"},
      {"measurement": "Diastolic blood pressure Min", "setting": "01:00 Hr", "value": "63 mm of Hg"},
      {"measurement": "Pulse rate, Max", "setting": "01:00 Hr", "value": 89, "unit": "beats/min"},
      {"measurement": "Pulse rate, Mean ± SD", "setting": "01:00 Hr", "value": "75.3 ± 10.08", "unit": "beats/min"},
      {"measurement": "Pulse rate, Median", "setting": "01:00 Hr", "value": 74.0, "unit": "beats/min"},
      {"measurement": "Pulse rate, Min", "setting": "01:00 Hr", "value": 60, "unit": "beats/min"},
      {"measurement": "Respiration rate, Max", "setting": "01:00 Hr", "value": 20, "unit": "breaths/min"},
      {"measurement": "Respiration rate, Mean ± SD", "setting": "01:00 Hr", "value": "18.1 ± 1.73", "unit": "breaths/min"},
      {"measurement": "Respiration rate, Median", "setting": "01:00 Hr", "value": 18.0, "unit": "breaths/min"},
      {"measurement": "Respiration rate, Min", "setting": "01:00 Hr", "value": 15, "unit": "breaths/min"},
      {"measurement": "Systolic blood pressure, Max", "setting": "01:00 Hr", "value": "160 mm of Hg"},
      {"measurement": "Systolic blood pressure, Mean ± SD", "setting": "01:00 Hr", "value": "134.4 ± 15.76 mm of Hg"},
      {"measurement": "Systolic blood pressure, Median", "setting": "01:00 Hr", "value": "133.0 mm of Hg"},
      {"measurement": "Systolic blood pressure, Min", "setting": "01:00 Hr", "value": "110 mm of Hg"},
      {"measurement": "Diastolic blood pressure Max", "setting": "01:15 Hr", "value": "84 mm of Hg"},
      {"measurement": "Diastolic blood pressure Mean ± SD", "setting": "01:15 Hr", "value": "74.6 ± 10.17 mm of Hg"},
      {"measurement": "Diastolic blood pressure Median", "setting": "01:15 Hr", "value": "79.5 mm of Hg"},
      {"measurement": "Diastolic blood pressure Min", "setting": "01:15 Hr", "value": "61 mm of Hg"},
      {"measurement": "Pulse rate, Max", "setting": "01:15 Hr", "value": 94, "unit": "beats/min"},
      {"measurement": "Pulse rate, Mean ± SD", "setting": "01:15 Hr", "value": "73.4 ± 11.56", "unit": "beats/min"},
      {"measurement": "Pulse rate, Median", "setting": "01:15 Hr", "value": 71.5, "unit": "beats/min"},
      {"measurement": "Pulse rate, Min", "setting": "01:15 Hr", "value": 58, "unit": "beats/min"},
      {"measurement": "Respiration rate, Max", "setting": "01:15 Hr", "value": 20, "unit": "breaths/min"},
      {"measurement": "Respiration rate, Mean ± SD", "setting": "01:15 Hr", "value": "18.4 ± 2.20", "unit": "breaths/min"},
      {"measurement": "Respiration rate, Median", "setting": "01:15 Hr", "value": 19.5, "unit": "breaths/min"}
    ]}
  ]
}
